We go through three compounds from patent US20170071235A1 (priority 2014, published 2017).

Data set [1] has as its system TNF-α secretion produced by PMA-differentiated macrophages. In kind it is cell-based, human.
Data set [2] relates to IL-1β secretion produced by PMA-differentiated macrophages. Type of data set: cell-based, human.
For data set [3], the system named is THP-1 monocytes.
The conditions of data set [4]: thiol group; cited from earlier work.

Take `CC1=C[C@H]2O[C@@H]3[C@H](O)C[C@](C)([C@@]2(CO)[C@H](O)C1=O)[C@]31CO1` [DON, deoxynivalenol]: the TNF-α secretion result in data set [1] is recorded as “increase in TNF-α”. Also, in data set [2], the IL-1β response result is listed as “did not show an IL-1β response” and the “release of IL-1β” value was “increased the release of IL-1β”. Also, the “effect on proliferation of THP-1 monocytes” value in data set [3] was “decreased the proliferation”.
On to `C=C1[C@@H]2O[C@@H]3C=C(C)C(=O)[C@@H](O)[C@]3(CO)[C@@]1(C)C[C@H]2O` [deepoxy-DON], for which the “release of IL-1β” value in data set [2] is given as “did not”. In addition, in data set [3], the “effect on proliferation of THP-1 monocytes” value is listed as “did not”.
Take `OCCS` [mercaptoethanol, 2-mercaptoethanol]: the pKa in data set [4] is approximately 9.6.

As a reminder, the pKa is the pH at which an ionisable group is half protonated.
